Values of other authors as cited in patent US20060014839A1, “Combination of angiotensin II receptor blocker and beta-blocker for secondary prevention of myocardial infarction” (priority 2002, published 2006).

System: elderly patients with heart failure
Conditions: losartan versus captopril 50 mg t.i.d.

For `CCCCc1nc(Cl)c(CO)n1Cc1ccc(-c2ccccc2-c2nn[nH]n2)cc1` [losartan], the “tolerability and increase in serum creatinine (primary objective)” value is listed as “no significant differences” and the all-cause mortality (722 patients, 49 deaths, preliminary) is listed as “statistically significant reduction”.
